This assay deals with T1, PIK3CA (Homo sapiens, UniProt P42336).
T1 construct: endogenous in cells; host or cells: Jurkat cell lysate
In words: In vitro ELISA target engagement assay for PIK3CA in Jurkat cellular lysate (competition with PIK3CA Biotin Probe). The following applies: 1 hour at rt, then 500 nM PIK3CA Biotin Probe, read-out: Elisa Target Engagement Assay (TE50). Type of assay: binding. As to the method:
Example 3. In Vitro ELISA Target Engagement Assay for […] Engagement of compounds on PIK3CA were assessed in Jurkat cellular lysate via a sandwich ELISA. A solution of PIK3CA Biotin Probe was generated at 10 mM and used in the biological testing. […] Treatment Protocol: Jurkat cellular lysate was generated from frozen cell pellets. Cells were thawed on ice and resuspended in cold Dulbecco's phosphate buffered saline (DPBS) (12 mL/300 e^6 cells) then lysed by probe sonication (12×3 second pulses). Jurkat lysate was plated (50 μl/well) in Armadillo 96 well PCR plates (Thermo Fisher catalog number AB2396). The lysate was treated with serial dilutions of test compounds up to 200 μM and incubated for 1 hour at rt. Following compound incubation, PIK3CA Biotin Probe was added to a final concentration of 500 nM, and lysate was mixed by pipetting gently and incubated for an additional 1 hour at rt. The mixture was then diluted in 75 μL Dilution buffer. The mixture was centrifuged for 5 minutes at 4122 g and stored at −80° C. until ELISA TE detection. ELISA TE Detection: Quantification of PIK3CA TE was initiated by coating of the ELISA plate (Thermo Scientific White 384-Well Immuno plates; Thermo Fisher catalog number 460372). The capture antibody was diluted in plating buffer (1:83) and added to the ELISA plate, 20 μl/well, overnight at 4° C. The plate was then washed twice with PBST, 100 μl/well, and blocked with addition of blocking buffer (100 μl/well, 1 hour at rt). During block, treated and probe labeled lysate was thawed. After Block, the block buffer was removed and the thawed lysate was added to the ELISA plate, 30 μl/well, for 1.5 hours at rt. Following lysate incubation, the assay plate was washed 3 times with PBST, 100 μl/well. The Neutravidin-HRP was then diluted (1:500 in dilution buffer) and added for 1 hour at rt, 20 μl/well. Following incubation, the assay plate was washed 4 times with PBST, 100 μl/well, HRP substrate was added to plate, 20 μl/well and luminescence signal was read (Clariostar Plate Reader). For each compound the potency of target engagement (TE50) was determined using Graphpad Prism.
(In general: In an ELISA, binding on a coated surface is turned into a signal by an enzyme label.)

T1 sequence (P42336 whole entry): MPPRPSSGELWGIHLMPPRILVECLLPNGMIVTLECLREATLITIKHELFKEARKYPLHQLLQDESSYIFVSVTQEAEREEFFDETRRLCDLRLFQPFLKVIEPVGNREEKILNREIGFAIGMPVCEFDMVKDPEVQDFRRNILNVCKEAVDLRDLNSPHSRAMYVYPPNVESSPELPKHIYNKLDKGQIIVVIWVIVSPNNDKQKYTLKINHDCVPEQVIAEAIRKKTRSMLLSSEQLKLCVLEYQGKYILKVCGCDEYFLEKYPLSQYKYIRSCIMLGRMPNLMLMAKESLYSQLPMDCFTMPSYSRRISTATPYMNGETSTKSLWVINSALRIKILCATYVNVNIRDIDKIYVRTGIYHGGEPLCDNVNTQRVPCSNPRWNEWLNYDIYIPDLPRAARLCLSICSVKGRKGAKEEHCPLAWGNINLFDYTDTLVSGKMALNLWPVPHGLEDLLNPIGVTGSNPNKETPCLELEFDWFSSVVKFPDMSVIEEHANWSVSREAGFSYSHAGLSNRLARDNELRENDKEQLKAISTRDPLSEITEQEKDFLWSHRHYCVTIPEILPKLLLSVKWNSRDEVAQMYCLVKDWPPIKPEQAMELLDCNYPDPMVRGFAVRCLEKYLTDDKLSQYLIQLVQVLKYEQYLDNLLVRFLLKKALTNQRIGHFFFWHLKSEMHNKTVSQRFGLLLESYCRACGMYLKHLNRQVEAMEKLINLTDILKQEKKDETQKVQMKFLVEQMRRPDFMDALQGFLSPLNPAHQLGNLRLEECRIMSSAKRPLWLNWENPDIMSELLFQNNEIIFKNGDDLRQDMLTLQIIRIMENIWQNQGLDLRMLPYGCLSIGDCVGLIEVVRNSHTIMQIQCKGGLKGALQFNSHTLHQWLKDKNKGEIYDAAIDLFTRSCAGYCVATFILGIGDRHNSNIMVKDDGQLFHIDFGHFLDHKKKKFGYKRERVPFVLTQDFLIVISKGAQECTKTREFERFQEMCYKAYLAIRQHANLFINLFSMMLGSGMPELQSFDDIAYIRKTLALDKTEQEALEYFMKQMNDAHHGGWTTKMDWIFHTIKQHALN
T1 sequence (P27986 whole entry partner): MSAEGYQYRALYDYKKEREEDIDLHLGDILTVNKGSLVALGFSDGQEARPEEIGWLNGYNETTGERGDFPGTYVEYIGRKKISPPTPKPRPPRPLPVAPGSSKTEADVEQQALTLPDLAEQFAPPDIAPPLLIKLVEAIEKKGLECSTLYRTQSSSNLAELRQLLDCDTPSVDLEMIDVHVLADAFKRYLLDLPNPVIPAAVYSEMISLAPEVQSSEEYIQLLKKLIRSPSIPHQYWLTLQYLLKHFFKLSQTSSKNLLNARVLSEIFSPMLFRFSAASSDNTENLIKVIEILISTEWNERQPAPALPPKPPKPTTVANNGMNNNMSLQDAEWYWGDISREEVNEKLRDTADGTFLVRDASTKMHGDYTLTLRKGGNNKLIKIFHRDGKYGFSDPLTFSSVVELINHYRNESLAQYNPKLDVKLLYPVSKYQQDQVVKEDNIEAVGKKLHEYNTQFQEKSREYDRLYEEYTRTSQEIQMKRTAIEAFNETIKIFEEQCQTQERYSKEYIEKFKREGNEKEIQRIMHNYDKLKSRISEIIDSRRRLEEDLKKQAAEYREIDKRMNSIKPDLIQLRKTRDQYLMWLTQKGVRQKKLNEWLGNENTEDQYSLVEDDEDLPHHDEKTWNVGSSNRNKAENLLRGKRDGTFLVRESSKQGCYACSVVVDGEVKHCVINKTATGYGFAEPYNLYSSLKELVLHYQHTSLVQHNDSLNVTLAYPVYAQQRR

On to `O=C(/C=C/CNC(=O)C1(F)CCN(S(=O)(=O)c2ccc(C(F)(F)F)cc2-c2ccccc2Cl)CC1)N1CC(F)(F)C1` [Compound 283, (E)-1-((2′-chloro-5-(trifluoromethyl)-[1,1′-biphenyl]-2-yl)sulfonyl)-N-(4-(3,3-difluoroazetidin-1-yl)-4-oxobut-2-en-1-yl)-4-fluoropiperidine-4-carboxamide], for which the IC50 turned out to be 200 nM.

On to `C[C@H](C#CC(=O)N(C)C)NC(=O)C1(F)CCN(S(=O)(=O)c2ccc(Br)cc2-c2ccccc2Cl)CC1` [Compound 280, (R)-1-((5-bromo-2′-chloro-[1,1′-biphenyl]-2-yl)sulfonyl)-N-(5-(dimethylamino)-5-oxopent-3-yn-2-yl)-4-fluoropiperidine-4-carboxamide], for which the IC50 was 150 nM.

In the case of `COC[C@H](/C=C\S(C)(=O)=O)NC(=O)C1(F)CCN(S(=O)(=O)c2ccc(Br)cc2-c2ccccc2Cl)CC1` [Compound 247, (S,Z)-1-((5-bromo-2′-chloro-[1,1′-biphenyl]-2-yl)sulfonyl)-4-fluoro-N-(1-methoxy-4-(methylsulfonyl)but-3-en-2-yl)piperidine-4-carboxamide], the IC50 worked out at 410 nM.

With `C[C@H](/C=C\S(C)(=O)=O)NC(=O)C1(F)CCN(S(=O)(=O)c2ccc(Br)cc2-c2ccc(F)cc2Cl)CC1` [Compound 50, (R,Z)-1-((5-bromo-2′-chloro-4′-fluoro-[1,1′-biphenyl]-2-yl)sulfonyl)-4-fluoro-N-(4-(methylsulfonyl)but-3-en-2-yl)piperidine-4-carboxamide], the IC50 was 319 nM.

With `C[C@H](/C=C\S(C)(=O)=O)NC(=O)[C@]1(F)CCCN(S(=O)(=O)c2ccc(C(F)(F)F)cc2-c2ccccc2Cl)CC1` [Compound 311, (S)-1-((2′-chloro-5-(trifluoromethyl)-[1,1′-biphenyl]-2-yl)sulfonyl)-4-fluoro-N-((R,Z)-4-(methylsulfonyl)but-3-en-2-yl)azepane-4-carboxamide], the IC50 worked out at 820 nM.

Turning to `C=C(C#N)CNC(=O)C1(F)CCN(S(=O)(=O)c2ccc(Br)cc2-c2ccccc2Cl)CC1` [Compound 72, 1-((5-bromo-2′-chloro-[1,1′-biphenyl]-2-yl)sulfonyl)-N-(2-cyanoallyl)-4-fluoropiperidine-4-carboxamide], the IC50 came out at 670 nM.

As for `C[C@H](/C=C\S(C)(=O)=O)NC(=O)C1(F)CCN(C(=O)[C@H]2CCN(C(=O)OC(C)(C)C)C[C@H]2c2ccccc2Cl)CC1` (relative stereo) [Compound 259, tert-butyl (3*R,4*S)-3-(2-chlorophenyl)-4-(4-fluoro-4-(((R,Z)-4-(methylsulfonyl)but-3-en-2-yl)carbamoyl)piperidine-1-carbonyl)piperidine-1-carboxylate], the IC50 stood at 660 nM.

As for `CC[C@@H](/C=C\S(C)(=O)=O)NC(=O)C1(F)CCN(S(=O)(=O)c2ccc(Br)cc2-c2ccccc2Cl)CC1` [Compound 82, (S,Z)-1-((5-bromo-2′-chloro-[1,1′-biphenyl]-2-yl)sulfonyl)-4-fluoro-N-(1-(methylsulfonyl)pent-1-en-3-yl)piperidine-4-carboxamide], the IC50 turned out to be 198 nM.

As to `COc1ccc(S(=O)(=O)N2CC[C@@](F)(C(=O)N[C@H](C)/C=C\S(C)(=O)=O)C[C@@H]2C)c(-c2ccccc2Cl)c1` (single isomer, unassigned) [Compound 148, (2*S,4*S)-1-((2′-chloro-5-methoxy-[1,1′-biphenyl]-2-yl)sulfonyl)-4-fluoro-2-methyl-N-((R,Z)-4-(methylsulfonyl)but-3-en-2-yl)piperidine-4-carboxamide], the IC50 amounted to 600 nM.

Regarding `CCc1ccccc1-c1cc(Br)ccc1S(=O)(=O)N1CCC(F)(C(=O)N[C@H](C)/C=C\S(C)(=O)=O)CC1` [Compound 51, (R,Z)-1-((5-bromo-2′-ethyl-[1,1′-biphenyl]-2-yl)sulfonyl)-4-fluoro-N-(4-(methylsulfonyl)but-3-en-2-yl)piperidine-4-carboxamide], the IC50 was 550 nM.

On to `C[C@H](/C=C/C(=O)N1CC(F)(F)C1)NC(=O)[C@]1(F)CCN(S(=O)(=O)c2cnc(C(F)(F)F)cc2-c2ccccc2Cl)[C@H](C)C1` [Compound 215, (2R,4S)-1-((4-(2-chlorophenyl)-6-(trifluoromethyl)pyridin-3-yl)sulfonyl)-N-((R,E)-5-(3,3-difluoroazetidin-1-yl)-5-oxopent-3-en-2-yl)-4-fluoro-2-methylpiperidine-4-carboxamide], for which the IC50 amounted to 490 nM.

Regarding `COC1(C(=O)N[C@H](C)/C=C\S(C)(=O)=O)CCN(S(=O)(=O)c2ccc(C(F)(F)F)cc2-c2ccccc2Cl)CC1` [Compound 139, (R,Z)-1-((2′-chloro-5-(trifluoromethyl)-[1,1′-biphenyl]-2-yl)sulfonyl)-4-methoxy-N-(4-(methylsulfonyl)but-3-en-2-yl)piperidine-4-carboxamide], the IC50 was found to be 330 nM.

With `C[C@H](/C=C\S(C)(=O)=O)NC(=O)C1(F)CCN(C(=O)[C@H]2CN(CC(F)(F)c3ccccc3)C[C@H]2c2ccccc2Cl)CC1` [Compound 181, 1-((3R,4R)-4-(2-chlorophenyl)-1-(2,2-difluoro-2-phenylethyl)pyrrolidine-3-carbonyl)-4-fluoro-N-((R,Z)-4-(methylsulfonyl)but-3-en-2-yl)piperidine-4-carboxamide], the IC50 stood at 700 nM.

`C[C@H](/C=C\S(C)(=O)=O)NC(=O)C1(F)CCN(C(=O)[C@H]2CN(CC(F)(F)C(F)(F)F)C[C@H]2c2ccccc2Cl)CC1` [Compound 182, 1-((3R,4R)-4-(2-chlorophenyl)-1-(2,2,3,3,3-pentafluoropropyl)pyrrolidine-3-carbonyl)-4-fluoro-N-((R,Z)-4-(methylsulfonyl)but-3-en-2-yl)piperidine-4-carboxamide]: the IC50 was 910 nM.

As to `COc1ccc(S(=O)(=O)N2CCC(OC)(C(=O)N[C@H](C)/C=C\S(C)(=O)=O)CC2)c(-c2ccccc2Cl)c1` [Compound 146, 1-[2-(2-chlorophenyl)-4-methoxy-phenyl]sulfonyl-4-methoxy-N—[(Z,1R)-1-methyl-3-methylsulfonyl-allyl]piperidine-4-carboxamide], the IC50 was 610 nM.

With `C[C@@H](NC(=O)C1(F)CCN(S(=O)(=O)c2ccc(C(F)(F)F)cc2-c2ccccc2Cl)CC1)C1=CS(=O)(=O)C1` [Compound 236, (R)-1-((2′-chloro-5-(trifluoromethyl)-[1,1′-biphenyl]-2-yl)sulfonyl)-N-(1-(1,1-dioxido-2H-thiet-3-yl)ethyl)-4-fluoropiperidine-4-carboxamide], the IC50 amounted to 390 nM.

In the case of `CS(=O)(=O)/C=C/CNC(=O)C1(F)CCN(S(=O)(=O)c2ccc(Br)cc2-c2ccccc2Cl)CC1` [Compound 64, (E)-1-((5-bromo-2′-chloro-[1,1′-biphenyl]-2-yl)sulfonyl)-4-fluoro-N-(3-(methylsulfonyl)allyl)piperidine-4-carboxamide], the IC50 was determined as 75 nM.

For `C[C@H](/C=C\S(C)(=O)=O)NC(=O)[C@]1(F)CCN(S(=O)(=O)c2ccc(C(F)(F)F)cc2-c2ccccc2Cl)[C@H](C)C1` [Compound 142, (2R,4S)-1-((2′-chloro-5-(trifluoromethyl)-[1,1′-biphenyl]-2-yl)sulfonyl)-4-fluoro-2-methyl-N-((R,Z)-4-(methylsulfonyl)but-3-en-2-yl)piperidine-4-carboxamide], the IC50 came out at 120 nM.

These data come from patent US20250026721A1, “COMPOUNDS AND METHODS FOR MODULATING RAS-PI3K” (Vividion Therapeutics, Inc., priority 2023, published 2025).
